Data from ChEMBL document CHEMBL1201862, “PubChem BioAssay data set” (2004).
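The compound was tested at five concentrations on cells cultured in 96-well plates, with a 48-hour exposure period. At the GI50, growth is halved.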 The source made the active and inactive calls. No stated cut-off is given here; in the data, active = GI50 up to about 1.1 µM and inactive = higher.

How the values were obtained:
Test in all cases: growth of human tumour cells (NCI), 48 h
[1] = system: A549
[2] = system: ACHN
[3] = system: DU-145
[4] = system: EKVX
[5] = system: HCC 2998
[6] = system: HCT-15
[7] = system: HT-29
[8] = system: IGROV-1
[9] = system: MOLT-4
[10] = system: OVCAR-5
[11] = system: PC-3
[12] = system: RPMI-8226
[13] = system: RXF 393
[14] = system: SF-268
[15] = system: SK-MEL-2
[16] = system: SN12C
[17] = system: SNB-75
[18] = system: SR
[19] = system: HL-60

SMILES | GI50 [1] | GI50 [2] | GI50 [3] | GI50 [4] | GI50 [5] | GI50 [6] | GI50 [7] | GI50 [8] | GI50 [9] | GI50 [10] | GI50 [11] | GI50 [12] | GI50 [13] | GI50 [14] | GI50 [15] | GI50 [16] | GI50 [17] | GI50 [18] | GI50 [19]
COc1cc([C@@H]2c3cc4c(cc3C[C@H]3COC(=O)[C@@H]32)OCO4)cc2c1OCO2 [AUSTROBAILIGNAN 1] | < 0.01 µM (active) | < 0.0121 µM (active) | < 0.01 µM (active) | < 0.01 µM (active) | < 0.01 µM (active) | < 0.01 µM | < 0.01 µM (active) | < 0.01 µM (active) | < 0.01 µM (active) | < 0.01 µM (active) | < 0.01 µM (active) | < 0.01 µM (active) | < 0.01 µM (active) | < 0.01 µM (active) | < 0.01 µM (active) | < 0.01 µM (active) | 0.0278 µM (active) | < 0.01 µM (active) | 
O=c1[nH]c(=O)n(C2CC(O)C(CO)O2)c2nc3ccc4ccccc4c3nc12 (centres undefined) | > 100 µM (inactive) | > 100 µM (inactive) | > 100 µM (inactive) | 72.4 µM (inactive) | 59 µM (inactive) | 62.2 µM |  | 47.4 µM (inactive) | 24.5 µM (inactive) | > 100 µM (inactive) | 73.8 µM (inactive) | 22.8 µM (inactive) | 56.6 µM (inactive) | 55.8 µM (inactive) | 95.5 µM (inactive) | 51.2 µM (inactive) | 52.8 µM (inactive) | 24.9 µM (inactive) | 
CN(C)/C=N\c1cccc2c1NSN2 | > 100 µM (inactive) | > 100 µM (inactive) | > 100 µM (inactive) | > 100 µM (inactive) | > 100 µM (inactive) | > 100 µM | > 100 µM (inactive) | > 100 µM (inactive) | > 100 µM (inactive) | > 100 µM (inactive) | > 100 µM (inactive) | > 100 µM (inactive) | > 100 µM (inactive) | > 100 µM (inactive) | > 100 µM (inactive) | > 100 µM (inactive) | > 100 µM (inactive) | > 100 µM (inactive) | > 100 µM (inactive)
Nc1nc2c(ncn2C2C=CC(COS(N)(=O)=O)C2)c(=O)[nH]1 (centres undefined) | > 100 µM (inactive) | > 100 µM (inactive) | > 100 µM (inactive) | > 100 µM (inactive) | > 100 µM (inactive) | > 100 µM | > 100 µM (inactive) | > 100 µM (inactive) | > 100 µM (inactive) | > 100 µM (inactive) | > 100 µM (inactive) | > 100 µM (inactive) | > 100 µM (inactive) | > 100 µM (inactive) | > 100 µM (inactive) | > 100 µM (inactive) | > 100 µM (inactive) | > 100 µM (inactive) | > 100 µM (inactive)
COc1cccc(/C=C\c2ccc(O)cc2)c1 | 16.9 µM (inactive) | 3.64 µM (inactive) | 13.1 µM (inactive) | 30.2 µM (inactive) | 23.8 µM (inactive) | 23.7 µM | 21.3 µM (inactive) | 26.7 µM (inactive) | 3.6 µM (inactive) | 62.8 µM (inactive) | 11.7 µM (inactive) | 22.4 µM (inactive) | 19.5 µM (inactive) | 28.2 µM (inactive) | 25.8 µM (inactive) | 22.9 µM (inactive) | 24 µM (inactive) | 2.72 µM (inactive) | 0.151 µM (active)
CSC1=C(C(=O)Nc2ccccc2)C(N)=NC1=O | > 100 µM (inactive) |  | > 100 µM (inactive) | 77.1 µM (inactive) | > 100 µM (inactive) | > 100 µM | > 100 µM (inactive) |  | > 100 µM (inactive) |  | > 100 µM (inactive) | > 100 µM (inactive) | 79.3 µM (inactive) | > 100 µM (inactive) | > 100 µM (inactive) | > 100 µM (inactive) | > 100 µM (inactive) | 32.4 µM (inactive) | > 100 µM (inactive)
CSC1(C(=O)O)C2CCC3C2CCC31 (centres undefined) | > 100 µM (inactive) | > 100 µM (inactive) | > 100 µM (inactive) | > 100 µM (inactive) | > 100 µM (inactive) | > 100 µM | > 100 µM (inactive) | > 100 µM (inactive) | > 100 µM (inactive) | > 100 µM (inactive) | > 100 µM (inactive) | > 100 µM (inactive) | > 100 µM (inactive) | > 100 µM (inactive) | > 100 µM (inactive) | > 100 µM (inactive) | > 100 µM (inactive) | > 100 µM (inactive) | 99.5 µM (inactive)
O=C(N/N=C\c1c(O)ccc2ccccc12)c1ccncc1 | 0.789 µM (active) | 0.206 µM (active) | 2.88 µM (inactive) |  | > 11.4 µM (inactive) | 0.0991 µM | 1.7 µM (inactive) | 0.148 µM (active) | 0.0313 µM (active) | > 6.85 µM (inactive) | 0.752 µM (active) | 0.364 µM (active) | 0.383 µM (active) | 0.341 µM (active) | 0.257 µM (active) | 0.231 µM (active) | 2.75 µM (inactive) | 0.558 µM (active) | 0.518 µM (active)
COc1c2c3c4c(c(OC)c(=O)c5c(O)cc(OC)c(c6c(OC)cc(O)c(c1=O)c63)c54)C(C(C)O)C2C(C)O (centres undefined) | 0.735 µM (active) | 0.811 µM (active) | 2.43 µM (inactive) | 0.944 µM (active) | 0.431 µM (active) | 1.2 µM | 1.16 µM (inactive) | 0.853 µM (active) | 0.505 µM (active) | 1.28 µM (inactive) | 0.594 µM (active) | 0.706 µM (active) | 0.471 µM (active) | 1.07 µM (active) | 1.23 µM (inactive) | 0.92 µM (active) | 0.518 µM (active) | 1.31 µM (inactive) | 0.392 µM (active)
CNc1cccc2c1C(C)C[C@]1(C)C(=O)Nc3ccccc3[C@H]21 (some centres undefined) | 20 µM (inactive) | 23.1 µM (inactive) | 39.1 µM (inactive) | 41.7 µM (inactive) | 51.3 µM (inactive) | 39.4 µM | 28 µM (inactive) | 35.8 µM (inactive) | 32.8 µM (inactive) | 31.1 µM (inactive) | 27.4 µM (inactive) | 54.6 µM (inactive) | 23.2 µM (inactive) | 34 µM (inactive) | 24.1 µM (inactive) | 21 µM (inactive) | 12.1 µM (inactive) | 23.8 µM (inactive) | > 100 µM (inactive)
CC[C@@]1(O)C(=O)OCc2c1cc1n(c2=O)Cc2c-1nc1ccccc1c2/C=N\NC(=O)C(N)Cc1c[nH]cn1 (some centres undefined) | 0.452 µM (active) | 0.043 µM (active) | 0.181 µM (active) | 7.45 µM (inactive) | 1.51 µM (inactive) | 1.34 µM | 2.1 µM (inactive) | 3.75 µM (inactive) | 0.0259 µM (active) | 3.56 µM (inactive) | 0.644 µM (active) | 0.356 µM (active) | 0.861 µM (active) | 0.0545 µM (active) | 7.74 µM (inactive) | 0.0673 µM (active) | 0.067 µM (active) | 0.0101 µM (active) | 0.164 µM (active)
CCOP(=O)(OCC)/C(C#N)=C/c1c(C)[nH]c2ccccc12 | > 100 µM (inactive) | > 100 µM (inactive) | > 100 µM (inactive) | > 100 µM (inactive) | > 100 µM (inactive) | > 100 µM | > 100 µM (inactive) | > 100 µM (inactive) | > 100 µM (inactive) | > 100 µM (inactive) | > 100 µM (inactive) | > 100 µM (inactive) | > 100 µM (inactive) | > 100 µM (inactive) |  | > 100 µM (inactive) | > 100 µM (inactive) | > 100 µM (inactive) | > 100 µM (inactive)
CC(=O)c1cccc(NC(=O)C(=O)C(c2cnc3ccc([N+](=O)[O-])cc3n2)[N+](=O)[O-])c1 (centres undefined) |  | > 100 µM (inactive) | > 100 µM (inactive) | > 100 µM (inactive) | 69.8 µM (inactive) | > 100 µM | > 100 µM (inactive) | > 100 µM (inactive) | 36.7 µM (inactive) | > 100 µM (inactive) | 42.9 µM (inactive) | > 100 µM (inactive) | 96.6 µM (inactive) | > 100 µM (inactive) | > 100 µM (inactive) | > 100 µM (inactive) | > 100 µM (inactive) | 52.1 µM (inactive) | 37.9 µM (inactive)
CCn1ncc(Oc2c(Cl)cc(N)cc2Cl)c(Cl)c1=O | 30.5 µM (inactive) | 57.9 µM (inactive) | 60.8 µM (inactive) | 34.9 µM (inactive) | 34.7 µM (inactive) | 27.8 µM | 25.3 µM (inactive) | 42.3 µM (inactive) |  | 43.9 µM (inactive) | 35.9 µM (inactive) | 31.6 µM (inactive) | 29 µM (inactive) | 31 µM (inactive) | 34.6 µM (inactive) | 79.3 µM (inactive) | 51.5 µM (inactive) | 21.5 µM (inactive) | 34.2 µM (inactive)
O=C(/C=C/c1ccc(O)c(O)c1)NC(CO)C(=O)O (centres undefined) | > 100 µM (inactive) | > 100 µM (inactive) | > 100 µM (inactive) | > 100 µM (inactive) | > 100 µM (inactive) | 1.08 µM | > 100 µM (inactive) | 0.612 µM (active) | > 100 µM (inactive) | > 100 µM (inactive) | > 100 µM (inactive) | > 100 µM (inactive) | > 100 µM (inactive) | > 100 µM (inactive) | > 100 µM (inactive) | > 100 µM (inactive) | > 100 µM (inactive) | > 100 µM (inactive) | 
